Laboratory results published in patent US11970473B2, “Nootkatone derivatives and methods of using the same” (Arkansas State University—Jonesboro, priority 2021, dated 2024).
In brackets after ≈: the same amount, converted by molar mass. Like-named read-outs stand apart in the source and are kept apart here.

Key:
[1] = tested on: S. aureus BAA-2312 (Sa12); experiment: Minimal inhibitory concentration (MIC) assay; format: cell-based; conditions: Staphylococcus aureus
Experimental: (§1) Minimal inhibitory concentration (MIC) assay The standard microdilution method recommended by the Clinical and Laboratory Standards Institute (CLSI) was used to determine the MIC of the antibiotics. The starting concentration of compounds was 50 μg/ml and 2-fold dilution was done down the 96 honeycomb well plate column. The MIC assay was conducted in triplicates.

[2] = tested on: S. aureus ATCC 700699 (Sa99); experiment: Minimal inhibitory concentration (MIC) assay; format: cell-based; conditions: Staphylococcus aureus
Experimental: as §1

[3] = tested on: Enterococcus faecium ATCC 700221 (Em21); experiment: Minimal inhibitory concentration (MIC) assay; format: cell-based; conditions: Enterococcus faecium
Experimental: as §1

[4] = tested on: S. aureus ATCC 25923 (Sa23); experiment: Minimal inhibitory concentration (MIC) assay; format: cell-based; conditions: Staphylococcus aureus
Experimental: as §1

[5] = tested on: S. aureus ATCC 33591 (Sa91); experiment: Minimal inhibitory concentration (MIC) assay; format: cell-based; conditions: Staphylococcus aureus
Experimental: as §1

[6] = tested on: S. aureus ATCC 33592 (Sa92); experiment: Minimal inhibitory concentration (MIC) assay; format: cell-based; conditions: Staphylococcus aureus
Experimental: as §1

[7] = tested on: Enterococcus faecalis ATCC 29212 (Es12); experiment: Minimal inhibitory concentration (MIC) assay; format: cell-based
Experimental: as §1

[8] = tested on: S. epidermidis 700296 (Se); experiment: Minimal inhibitory concentration (MIC) assay; format: cell-based; conditions: Staphylococcus epidermidis, read-out: Antimicrobial activity (MIC) Se
Experimental: as §1

[9] = tested on: B. subtilis ATCC 6623 (Bs); experiment: Minimal inhibitory concentration (MIC) assay; format: cell-based; conditions: Bacillus subtilis
Experimental: as §1

S. aureus strains = experiment: MIC, summary over S. aureus strains; format: cell-based; conditions: two MRSA strains
Experimental: as §1

MRSA persisters = experiment: Persister Cell Killing Assay; conditions: after 4 hrs exposure; 128×MIC
Experimental: A persister cell killing assay was performed following the methodology described by Kim et. al. with some modifications.^28 S. aureus strain was grown to stationary phase in CAMHB medium by shaking at 200 rpm overnight at 35° C. An aliquot of stationary phase culture (1 ml) was washed thrice with 1×PBS by centrifugation. After washing, the cells were diluted to ˜5×10^8 CFU/ml (confirmed by plate count). Diluted persister cells (2 ml) plus antibiotics at the desired concentration were incubated in sterile 10×75 mm plastic culture tubes at 35° C. with shaking at 200 rpm. At specific times, 400 μl aliquots were placed into microcentrifuge tubes and the cells washed and serially diluted in PBS. The diluted sample was plated on TSA agar plate with 5% sheep blood by the 6×6 drop plate method. Plates were incubated for 18-20 hours at 35° C., and then colonies were counted to calculate concentrations in CFU/ml. The experiment was performed in triplicates.

[10] = tested on: S. aureus ATCC 700699 and S. aureus ATCC 33591; experiment: Time-Kill Assay; format: cell-based; conditions: 4×MIC
Experimental: Time kill assay for test antibiotics against S. aureus ATCC 700699 and S. aureus ATCC 33591 strains was conducted using procedures published previously.^26 Briefly, a log-phase bacterial culture was diluted to ˜5×10^6 CFU/ml in warm sterile CAMHB broth and was exposed to antibiotics at 4×MIC concentration then incubated at 35° C. Samples of 20 μl were taken every 2 hours, diluted 10 fold to 10^−5, and the 6×6 drop plate method was performed to determine viable CFU/ml after 18-24 hours of incubation at 35° C. Each antibiotic time-kill assay was conducted in triplicate.

[11] = BAA2312, S. aureus BAA-2312, antibiotic-resistant strain, read-out: Antimicrobial activity (MIC) Sa12
[12] = ATCC700699, S. aureus ATCC 700699, antibiotic-resistant strain, read-out: Antimicrobial activity (MIC) Sa99
[13] = ATCC700221, Enterococcus faecium ATCC 700221, read-out: Antimicrobial activity (MIC) Em21
[14] = ATCC25923, S. aureus ATCC 25923, antibiotic susceptible strain, read-out: Antimicrobial activity (MIC) Sa23
[15] = ATCC33591, S. aureus ATCC 33591, antibiotic-resistant strain, read-out: Antimicrobial activity (MIC) Sa91
[16] = ATCC33592, S. aureus ATCC 33592, antibiotic-resistant strain, read-out: Antimicrobial activity (MIC) Sa92
[17] = ATCC29212, Enterococcus faecalis ATCC 29212, read-out: Antimicrobial activity (MIC) Es12
[18] = ATCC6623, B. subtilis ATCC 6623, read-out: Antimicrobial activity (MIC) Bs

| Compound | MIC [1, 11] [µg/mL] | MIC [2, 12] [µg/mL] | MIC [3, 13] [µg/mL] | MIC [4, 14] [µg/mL] | MIC [5, 15] [µg/mL] | MIC [6, 16] [µg/mL] | MIC [7, 17] [µg/mL] | MIC ([8]; S. epidermidis 700296) [µg/mL] | MIC [9, 18] [µg/mL] | also measured |
| --- | --- | --- | --- | --- | --- | --- | --- | --- | --- | --- |
| C=C(C)[C@@H]1CC=C2c3sc(-c4ccc5c(c4)OCO5)nc3C[C@@H](C)[C@]2(C)C1 [Compound 17, (5R,5aS,7R)-2-(1,3-benzodioxol-5-yl)-7-isopropenyl-5,5a-dimethyl-5,6,7,8-tetrahydro-4H-benzo[g][1,3]benzothiazole] | > 100 | > 100 | > 100 | > 100 | 25 (≈ 65.9 µM) | > 100 | > 100 | 25 (≈ 65.9 µM) | 12.5 (≈ 32.9 µM) | activity against MRSA strains (S. aureus strains): moderate activity |
| C=C(C)[C@@H]1CC=C2c3sc(-c4ccc(F)cc4)nc3C[C@@H](C)[C@]2(C)C1 [Compound 18, (5R,5aS,7R)-2-(4-fluorophenyl)-7-isopropenyl-5,5a-dimethyl-5,6,7,8-tetrahydro-4H-benzo[g][1,3]benzothiazole] | 25 (≈ 70.7 µM) | > 100 | > 100 | > 100 | 50 (≈ 141 µM) | > 100 | > 100 | > 100 | > 100 | – |
| C=C(C)[C@@H]1CC=C2c3sc(-c4ccc(Cl)cc4)nc3C[C@@H](C)[C@]2(C)C1 [Compound 19, (5R,5aS,7R)-2-(4-chlorophenyl)-7-isopropenyl-5,5a-dimethyl-5,6,7,8-tetrahydro-4H-benzo[g][1,3]benzothiazole] | 25 (≈ 67.6 µM) | 25 (≈ 67.6 µM) | > 100 | 25 (≈ 67.6 µM) | 50 (≈ 135 µM) | > 100 | > 100 | 50 (≈ 135 µM) | 12.5 (≈ 33.8 µM) | – |
| C=C(C)[C@@H]1CC=C2c3sc(-c4ccc(Br)cc4)nc3C[C@@H](C)[C@]2(C)C1 [Compound 20, (5R,5aS,7R)-2-(4-bromophenyl)-7-isopropenyl-5,5a-dimethyl-5,6,7,8-tetrahydro-4H-benzo[g][1,3]benzothiazole] | > 100 | > 100 | > 100 | > 100 | 50 (≈ 121 µM) | > 100 | > 100 | > 100 | > 100 | – |
| C=C(C)[C@@H]1CC=C2c3sc(-c4ccc(F)c(F)c4)nc3C[C@@H](C)[C@]2(C)C1 [Compound 21, (5R,5aS,7R)-2-(3,4-difluorophenyl)-7-isopropenyl-5,5a-dimethyl-5,6,7,8-tetrahydro-4H-benzo[g][1,3]benzothiazole] | > 100 | > 100 | > 100 | 100 (≈ 269 µM) | > 100 | 1.56 (≈ 4.2 µM) | > 100 | > 100 | > 100 | – |
| C=C(C)[C@@H]1CC=C2c3sc(Nc4ccc(F)cc4)nc3C[C@@H](C)[C@]2(C)C1 [Compound 24, (5R,5aS,7R)—N-(4-fluorophenyl)-7-isopropenyl-5,5a-dimethyl-5,6,7,8-tetrahydro-4H-benzo[g][1,3]benzothiazol-2-amine] | > 100 | > 100 | > 100 | 50 (≈ 136 µM) | > 100 | > 100 | > 100 | > 100 | 100 (≈ 271 µM) | – |
| C=C(C)[C@@H]1CC=C2c3sc(Nc4ccc(F)cc4F)nc3C[C@@H](C)[C@]2(C)C1 [Compound 25, (5R,5aS,7R)—N-(2,4-difluorophenyl)-7-isopropenyl-5,5a-dimethyl-5,6,7,8-tetrahydro-4H-benzo[g][1,3]benzothiazol-2-amine] | > 100 | > 100 | > 100 | 100 (≈ 259 µM) | > 100 | > 100 | > 100 | > 100 | > 100 | – |
| C=C(C)[C@@H]1CC=C2c3sc(Nc4ccc(OC(F)(F)F)cc4)nc3C[C@@H](C)[C@]2(C)C1 [Compound 26, (5R,5aS,7R)-7-isopropenyl-5,5a-dimethyl-N-[4-(trifluoromethoxy)phenyl]-5,6,7,8-tetrahydro-4H-benzo[g][1,3]benzothiazol-2-amine] | > 100 | > 100 | > 100 | 50 (≈ 115 µM) | > 100 | > 100 | > 100 | > 100 | 100 (≈ 230 µM) | – |
| CN[C@H](CC(C)C)C(=O)N[C@H]1C(=O)N[C@@H](CC(N)=O)C(=O)N[C@H]2C(=O)N[C@H]3C(=O)N[C@H](C(=O)N[C@H](C(=O)O)c4cc(O)cc(O)c4-c4cc3ccc4O)[C@H](O)c3ccc(c(Cl)c3)Oc3cc2cc(c3O[C@@H]2O[C@H](CO)[C@@H](O)[C@H](O)[C@H]2O[C@H]2C[C@](C)(N)[C@H](O)[C@H](C)O2)Oc2ccc(cc2Cl)[C@H]1O [VC, vancomycin, reference compound] | – | – | – | – | – | – | – | – | – | CFU count (MRSA persisters): 2.4×10^7 CFU; MIC ([1]; BAA2312, read-out: Antimicrobial activity (MIC) Sa12): 0.78 µg/mL (≈ 0.538 µM); MIC ([2]; ATCC700699, read-out: Antimicrobial activity (MIC) Sa99): 0.78 µg/mL (≈ 0.538 µM); MIC ([3]; ATCC700221, read-out: Antimicrobial activity (MIC) Em21): > 100 µg/mL; MIC ([4]; ATCC25923, read-out: Antimicrobial activity (MIC) Sa23): 3.12 µg/mL (≈ 2.16 µM); MIC ([5]; ATCC33591, read-out: Antimicrobial activity (MIC) Sa91): 1.56 µg/mL (≈ 1.08 µM); MIC ([6]; ATCC33592, read-out: Antimicrobial activity (MIC) Sa92): 1.56 µg/mL (≈ 1.08 µM); MIC ([7]; Enterococcus faecalis, ATCC29212, read-out: Antimicrobial activity (MIC) Es12): 3.12 µg/mL (≈ 2.15 µM); MIC [8]: 1.56 µg/mL (≈ 1.08 µM); MIC ([9]; ATCC6623, read-out: Antimicrobial activity (MIC) Bs): 0.39 µg/mL (≈ 0.269 µM); eliminated bacteria at [10]: 10 h |
| gentamycin [reference compound] | – | – | – | – | – | – | – | – | – | CFU count (MRSA persisters): 2.2×10^8 CFU |
